This is an account of results in PubChem BioAssay (NCI).

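Cells were grown in 96-well plates and exposed to each compound for 48 hours at five concentrations; endpoints were interpolated linearly between bracketing concentrations, or set to the highest concentration if not reached. GI50: concentration for 50% inhibition of growth. TGI denotes the concentration required for complete inhibition of growth.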

Holding throughout (experiment): NCI anticancer screen, dose series, 48 h
In experiment [1] the test system is CCRF-CEM leukemia.
In experiment [2] the test system is HOP-62 NSCLC.
The subject of experiment [3] is NCI-H460 lung.
Experiment [4] relates to OVCAR-3 ovarian.
The subject of experiment [5] is SF-295 CNS.
Experiment [6] deals with SNB-19 CNS.
Experiment [7] deals with U251 CNS.
For experiment [8], the system named is UACC-257 melanoma.
Experiment [9] deals with UACC-62 melanoma.
Experiment [10] has as its system UO-31 renal.

`COc1cc(NCCCCCCCNC(C)C)c2nccc(C)c2c1`: the GI50 in experiment [1] is 12.1 µM; in [2], 13.8 µM; in experiment [3] it was 12.2 µM; in experiment [4], 2.96 µM; in experiment [5], 14.1 µM; in experiment [6], 16 µM. In addition, the GI50 was 11 µM in experiment [7], 18.2 µM in [8], 4.88 µM in [9] and 7.41 µM in experiment [10]. Also, the TGI in [1] amounted to 33 µM; in experiment [2], 27.6 µM; in experiment [3], 27.5 µM; in experiment [4] it was 8.89 µM; in [5] it was 29.6 µM; in experiment [6], 30 µM. Besides, the TGI was found to be 24.2 µM in experiment [7], 34.2 µM in experiment [8], 17.6 µM in experiment [9] and 23 µM in [10].

With `CC(=O)OC(Cn1cncn1)(Cn1cncn1)c1ccc(Cl)cc1Cl`, the TGI in experiment [1], in experiment [2], in experiment [3], in experiment [4], in experiment [5] and in experiment [6] was more than 100 µM throughout. The TGI in experiment [7], in [8] and in experiment [10] was more than 100 µM each time.

Consider `Cc1nc(C(N)=S)sc1C(=O)/C=C/c1c(O)ccc2ccccc12`, for which the TGI in experiment [1] is 54.5 µM; in experiment [2], more than 100 µM; in experiment [3], more than 100 µM; in [4] it was more than 84.3 µM; in experiment [5] it was more than 100 µM; in [6], more than 100 µM. The TGI in experiment [7] is more than 100 µM; in experiment [8], more than 100 µM; in experiment [9], more than 87.9 µM; in [10], more than 100 µM.

As for `COC(=O)C1(C)Cc2cc(OC(C)=O)c(OC(C)=O)cc2N1` (stereo not drawn), the GI50 in experiment [1] was 3.42 µM; in experiment [2], more than 100 µM; in experiment [3], 32.8 µM; in [4], 6.97 µM; in experiment [5], 67.5 µM; in experiment [6] it was more than 61.9 µM. In addition, the GI50 in experiment [7] is 8.09 µM; in experiment [8], 1.68 µM; in experiment [9] it was 4.09 µM; in experiment [10], 3.59 µM. For the same compound, the TGI in [1] is more than 46 µM; in experiment [2], more than 100 µM; in experiment [3], more than 100 µM; in experiment [4], 23.8 µM; in [5] it was more than 100 µM; in [6] it was more than 100 µM. For the same compound, the TGI worked out at 21.9 µM in experiment [7], 11.4 µM in experiment [8], 17.5 µM in experiment [9] and 21.9 µM in experiment [10].

As to `CC1(C)CC2C(=O)c3ccccc3NC2c2ccccc21` (stereo not drawn), the TGI in experiment [1] is more than 100 µM; in experiment [2], more than 100 µM; in experiment [3], more than 100 µM; in experiment [4], more than 100 µM; in experiment [5] it was more than 22.9 µM; in [6] it was more than 100 µM. Moreover, the TGI is more than 100 µM in experiment [7], more than 100 µM in experiment [8], more than 100 µM in experiment [9] and more than 67.2 µM in [10].

For the compound `Cc1c2ccccc2cc2ccc3oc([N+](=O)[O-])cc3c12`, the TGI in [1], in experiment [2], in experiment [3], in experiment [4], in [5] and in experiment [6] was more than 100 µM in each case. For the same compound, the TGI in [7], in experiment [8], in [9] and in [10] was more than 100 µM throughout.

With `CN(C)C(=O)O[C@H]1CN[C@H](C#Cc2cc3ncnc(Nc4ccc(OCc5cccc(F)c5)c(Cl)c4)c3s2)C1`, the GI50 in experiment [1] is 3.17 µM; in [2], more than 23.4 µM; in experiment [3], 7.25 µM; in experiment [4], 4.2 µM; in experiment [5], more than 20 µM; in experiment [6], more than 19.7 µM. Moreover, the GI50 in experiment [7] was 14.7 µM; in experiment [8], more than 25 µM; in experiment [9] it was more than 25 µM; in experiment [10] it was 4.04 µM. The TGI is more than 25 µM in experiment [1]; more than 25 µM in [2]; more than 25 µM in experiment [3]; 16.3 µM in [4]; more than 25 µM in experiment [5]; more than 25 µM in experiment [6]. Further, the TGI is more than 25 µM in [7], more than 25 µM in experiment [8], more than 25 µM in [9] and more than 23.9 µM in experiment [10].

With `CC(C)(C)C(=O)[CH-]C(=O)C(C)(C)C.CC(C)(C)C(=O)[CH-]C(=O)C(C)(C)C.CN(C)c1ccc([O-])cc1.CN(C)c1ccc([O-])cc1.[Ti+4]`, the GI50 in experiment [1] is more than 100 µM; in experiment [2], more than 100 µM; in experiment [3] it was more than 100 µM; in [4], 96.2 µM; in [5], more than 100 µM; in [7], 43.1 µM. Moreover, the GI50 in experiment [8], in experiment [9] and in experiment [10] was more than 100 µM throughout. Further, the TGI in [1], in [2], in experiment [3], in experiment [4], in [5] and in [7] was more than 100 µM in each case. Moreover, the TGI in experiment [8], in experiment [9] and in experiment [10] was more than 100 µM throughout.

For the compound `COc1cnc2c(c1)C(=O)c1c-2n(CCCN2CCN(C)CC2)c(=O)c2cc([N+](=O)[O-])ccc12`, the GI50 in [1] is 0.0683 µM; in [2], 0.0813 µM; in experiment [3], 0.135 µM; in experiment [4] it was 0.171 µM; in [5] it was 0.0698 µM; in experiment [6], 0.399 µM. Moreover, the GI50 in experiment [7] is 0.165 µM; in experiment [8], 2.46 µM. Also, the TGI in [1] was 0.834 µM; in experiment [2], 0.392 µM; in [3], 0.365 µM; in experiment [4], 0.359 µM; in [5], 0.483 µM; in experiment [6], 5.01 µM. In addition, the TGI in experiment [7] came to 0.386 µM; in [8], 5.87 µM.
